Data reported in patent US20070122849A1, “Rhesus monkey P2X7 purinergic receptor and uses thereof” (priority 2005, published 2007).

Tests used:
[1] = system: rhP2X7 receptor; experiment: rhP2X7 receptor activity in stably transfected HEK293 cells (calcium flux and change in membrane potential after agonist activation); format: cell-based, Macaca mulatta (Rhesus monkey); details: recombinant rhP2X7 receptor
Protocol: RhP2X7 receptor activity in the stably transfected HEK293 cells was monitored by measuring calcium flux and change in membrane potential subsequent to activation with potent agonists (ATP, Bz-ATP). The membrane potential was measured using the following protocol.
Stably transfected recombinant HEK293 cells were plated into the wells of a 384-well Costar plates (25 μL/well) in growth medium (DMEM without pyruvate (Invitrogen-11965-084) with 10% FBS (Invitrogen 10082-139), 100 U/ml P/S (Invitrogen 15140-148), and 100 ug/mL hygromycin (Roche, 843555) and the plates incubated for 24 hours at 37° C., 5% CO2. Then, 25 μL of membrane potential buffer (Blue dye, Molecular Devices, Sunnyvale, Calif.) was added to the medium and the cells incubated for 30 minutes at 37° C., 5% CO2. Next, about 30 to 100 nL of either analyte or antagonist control or 10 μL agonist 3′-O-(4-benzoylbenzoyl)-ATP (Bz-ATP) (at an EC80) was added to the medium in separate wells of the plates. After incubating the plates for 30 minutes at 37° C., 5% CO2, fluorescence was read using a fluorometric plate reader (FLIPR, Molecular Devices). Data were analyzed using the formula EC50=using (Max−Min); Signal to Noise Ratio (S/B)=Max/Min; Z′ Factor=1−[3*SD of Max)+(3*SD of Min)/(mean of Max−mean of Min).
Calcium flux was measured using the following FLIPR Calcium Flux Assay protocol (Molecular Devices, Sunnyvale, Calif.). […]

[2] = system: rhP2X7 receptor; experiment: calcium flux protocol for high throughput screen using cells that express the rhP2X7 receptor; format: cell-based, Macaca mulatta (Rhesus monkey); details: agonist used in the example screening protocol; source of the value not stated
Protocol: The following is an example of a calcium flux protocol that can be used in a high throughput screen using cells that express the rhP2X7 receptor. The cells are grown to about 75-85% confluence, rinsed with DPBS (5.33 mM KCl, 0.44 mM KH2PO4, 0.3 mM Na2HPO4, 4 mM NaHCO3, 0.1% Glucose, 138 mM N-methyl glucamine), and dissociated with 0.05% trypsin. Then, about 20,000 cells are plated into multiple of the wells of multiwell plates in complete growth medium. The cells are incubated at 37° C. and 5% CO2 for about 20 to 24 hours. Next, about 20 μL FLUO-4 loading buffer (Invitrogen) is added to each of the wells and the cells incubated at RT for 60 minutes. Then, about 10 μL aliquots of each analyte to be tested (final concentration in DMSO about 0.1%) diluted in TR-40 quenching solution (Sigma #T2397) is added to a well containing cells. Controls include antagonists such as KN-62 and Ox-ATP and agonists such as Bz-ATP (at an EC80). The cells are incubated for about 10 minutes at RT.

EC50 [2] [µM]	Compound	EC50 [1] [µM]
–	Nc1ncnc2c1ncn2[C@@H]1O[C@H](COP(=O)(O)OP(=O)(O)OP(=O)(O)O)[C@@H](O)[C@H]1O [ATP]	~3000
–	Nc1ncnc2c1ncn2[C@@H]1O[C@H](COP(=O)(O)OP(=O)(O)OP(=O)(O)O)[C@@H](OC(=O)c2ccc(C(=O)c3ccccc3)cc2)[C@H]1O [Bz-ATP, 3′-O-(4-benzoylbenzoyl)-ATP]	~150
350	Nc1ncnc2c1ncn2[C@@H]1O[C@H](COP(=O)(O)CP(=O)(O)OP(=O)(O)O)[C@@H](O)[C@H]1O [a,b-methylene ATP]	–
